# Measurements from patent US5565455A, “Method for treating substance abuse disorders” (priority 1992, dated 1996).
# Where a name gives a salt, the structure may show the parent alone. Read-outs that look alike come from different tables or passages of the source.
# Legend:
# [1] = test system: consumption of alcohol by monkeys; details: cited from earlier work
# [2] = test system: alcohol-dependent individuals; details: cited from earlier work
# 5-HT1A = molecular target: T1, 5-HT1A (Homo sapiens, UniProt P08908); experiment: biochemical; type: binding
# T1 sequence (P08908 1-422): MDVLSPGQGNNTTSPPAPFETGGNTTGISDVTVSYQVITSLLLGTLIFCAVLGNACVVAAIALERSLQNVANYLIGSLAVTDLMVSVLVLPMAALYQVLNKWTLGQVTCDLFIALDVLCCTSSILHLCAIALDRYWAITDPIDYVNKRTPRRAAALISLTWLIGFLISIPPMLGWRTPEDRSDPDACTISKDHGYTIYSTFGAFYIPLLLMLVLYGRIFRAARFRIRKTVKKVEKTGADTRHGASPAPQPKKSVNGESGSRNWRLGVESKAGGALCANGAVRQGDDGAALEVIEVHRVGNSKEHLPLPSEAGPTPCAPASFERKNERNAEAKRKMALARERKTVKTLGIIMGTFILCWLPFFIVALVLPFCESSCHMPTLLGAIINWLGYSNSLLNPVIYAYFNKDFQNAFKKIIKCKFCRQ
# [3] = test system: voluntary ethanol consumption in rats; details: cited from earlier work
# [4] = test system: 5-HT reuptake, synaptosomes from rat frontal cortex; experiment: Inhibition of reuptake of [3H-5-HT] by synaptosomes from rat frontal cortex; type: biochemical; details: method of Shank et al.
# 5-HT2 = 5-HT2 (Homo sapiens, UniProt P28223); experiment: Drug affinity for 5-HT2 receptor, radioligand 3H-ketanserin, cerebral cortex
# [5] = test system: Sprague-Dawley rats induced to drink alcohol chronically; experiment: Alcohol drinking in Sprague-Dawley rats induced by cyanamide injections; type: in vivo, rat
# Protocol: To further illustrate the useful pharmacological properties of FG5893, the effect of FG5893 administered systemically was determined in Sprague-Dawley rats induced to drink alcohol chronically by a series of intraperitoneal injections of cyan-amide according to experimental procedures described previously (Critcher, E. C. and R. D. Myers, Alcohol 4:347-353, 1987). Intakes of food and body weights were recorded.
# FG5893 in a dose of 0.5, 1.0 and 2.5 mg/kg was administered twice a day for three consecutive days. […] This finding is notable because drugs that attenuate the preference for alcohol consumed in a concentration of pharmacological consequence typically impair the ingestion of food.
# [6] = clinical trial versus placebo in alcohol-dependent individuals
# [7] = 0.5, 1.0 and 2.5 mg/kg twice a day for three consecutive days, all doses
# Sequence of 5-HT2 (P28223 whole entry, species assumed): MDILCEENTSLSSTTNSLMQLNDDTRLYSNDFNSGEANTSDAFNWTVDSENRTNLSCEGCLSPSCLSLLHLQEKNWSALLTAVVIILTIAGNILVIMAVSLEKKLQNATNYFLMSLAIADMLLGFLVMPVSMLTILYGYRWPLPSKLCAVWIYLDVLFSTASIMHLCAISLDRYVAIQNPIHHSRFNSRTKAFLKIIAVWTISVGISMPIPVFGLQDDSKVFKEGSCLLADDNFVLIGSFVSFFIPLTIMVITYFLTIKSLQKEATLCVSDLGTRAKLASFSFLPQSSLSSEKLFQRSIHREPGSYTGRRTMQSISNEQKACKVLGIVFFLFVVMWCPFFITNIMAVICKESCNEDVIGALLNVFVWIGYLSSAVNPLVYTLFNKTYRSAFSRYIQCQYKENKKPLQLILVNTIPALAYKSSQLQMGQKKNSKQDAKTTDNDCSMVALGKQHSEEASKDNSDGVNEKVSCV
structure (smiles),measurement,setting,value
O=C1CC2(CCCC2)CC(=O)N1CCCCN1CCN(c2ncccn2)CC1 [Buspirone],consumption of alcohol by monkeys,[1],attenuate significantly
same,drop-out rate,[2]; [6],lower drop-out rate
same,signs of craving,[2]; [6],fewer signs of craving
CCNC(=O)N1CCN(CCCC(c2ccc(F)cc2)c2ccc(F)cc2)CC1 [Amperozide],Ki,5-HT1A,805 nM
same,consumption of food and level of body weight,"[3]; rat, in vivo",without affecting
same,intake of alcohol in rats,[3]; rats,significantly attenuate
same,IC50,[4],320 nM
same,Ki,5-HT2,17 nM
CN(C)C/C=C(/c1ccc(Br)cc1)c1cccnc1 [Zimelidine],ingestion of food and alcohol,[3]; concomitantly,attenuate
same,voluntary ethanol consumption in rats,[3]; rats,potent inhibitory effect
same,IC50,[4],120 nM
same,number of abstinent days,[2]; human trials,increase
same,number of daily drinks,[2]; human trials,slight reduction
"COC(=O)c1cccnc1N1CCN(CCCC(c2ccc(F)cc2)c2ccc(F)cc2)CC1 [FG5893, 2-[4-[4,4-bis(4-fluorophenyl)butyl]-1-piperazinyl]-3-pyridinecarboxylic acid methyl ester dihydrochloride ethylat]",Ki,"5-HT1A; Radioligand 3H-8-OH-DPAT, tissue hippocampus",0.7 nM
same,IC50,[4],80 nM
same,"intake of alcohol, absolute g/kg",[5]; [7],significantly reduced
same,proportion of alcohol to total fluid intake,[5]; [7],significantly reduced
same,alcohol consumption after the injection sequence,"[5]; 1.0 and 2.5 mg/kg doses, two 4-day tests immediately following the injection sequence and after a 40-day interval",continued to suppress alcohol consumption
same,body weights,[5]; during or after administration,Neither body weights nor intakes of food of the rats were affected
same,intakes of food,[5]; during or after administration,Neither body weights nor intakes of food of the rats were affected
same,Ki,5-HT2,4 nM
